Experimental data reported in patent US20140158116A1, “INHIBITING TRPA1 FOR THE TREATMENT OF ASTHMA” (Cubist Pharmaceuticals, Inc., priority 2012, published 2014).
“Also recorded” adds a separate entry of the source.

Experiments:
[1] = system: airway hyper-responsiveness to Carbachol; test: Sheep allergic asthma model, airway hyper-responsiveness (PC400) to Carbachol; assay type: in vivo; conditions: 24 hour post-challenge Carbachol
Procedure: Compounds were tested in the sheep model of experimental asthma reported in Abraham W M, Asthma & Rhinitis, 2000: 1205-1227 incorporated herein by reference in its entirety.
The unsedated sheep were restrained in a cart in the prone position with their heads immobilized. After topical anesthesia of the nasal passages with 2% lidocaine solution, a balloon catheter was advanced through one nostril into the lower esophagus. The sheep were intubated with a cuffed endotracheal tube through the other nostril. Pleural pressure was estimated with the esophageal balloon catheter. Lateral pressure in the trachea was measured with a sidehole catheter (inner dimension, 2.5 mm) advanced through and positioned distal to the tip of the endotracheal tube. Transpulmonary pressure, the difference between tracheal and pleural pressure, was measured with a differential pressure transducer catheter system. For the measurement of pulmonary resistance (RL), the proximal end of the endotracheal tube was connected to a pneumotachograph. […]
Baseline concentration response curves to aerosol Carbachol were obtained 1 to 3 days before commencement of drug/vehicle treatment. […] Baseline values of pulmonary resistance (RL) were obtained within 30 minutes of treatment and then re-measured 30 minutes before antigen challenge. […]

[2] = system: incisional spontaneous pain (guarding); test: Surgical incision (Brennan) pain behavior rodent model; assay type: in vivo, rat
Procedure: The compound of Formula (Ia) is also active in rodent models of pain in vivo induced by incision of the plantar surface of the hind paw (i.e., the “Brennan Surgical Model”), as described in Example 7. […] Thirty (30) mg/kg of the compound of Formula (Ia) delivered intraperitoneally (2 doses of 15 mg/kg before and immediately after the surgery) reduces spontaneous pain for up to 2 hours after surgery (FIG. 4). The compound of Formula (Ia), the comparator compound of Formula (III) and ketoprofen were tested by the incisional pain test method reported in Brennan et al., Pain, 1996 March; 64(3):493-501 incorporated herein by reference in its entirety. Briefly, in rats under anesthesia, a 1 cm incision through skin and underlying muscle was made in the bottom of one hind paw. The incision was sutured closed and the animals allowed to regain consciousness in their home cage before being placed on a special mesh rack. The blinded observer subjectively assessed and recorded each animal's pain score every 5 minutes for 1 hour. Pain scores were assigned as follows: Score of 0=Injured paw was held flat on the rack and was bearing weight (=uninjured paw); 1=Injured paw was slightly lifted from the rack but was bearing some weight; 2=Injured paw was flat but was bearing no weight, or heel was lifted high off the rack with only toes touching. At the end of each hour, pain scores were added up and the final score recorded ([…]). In a typical study the efficacy of the drug treatment was determined by comparing the cumulative guarding scores at 1-2 and 3-4 hours following surgical injury to the cumulative guarding scores of animals that received the vehicle.

[3] = system: formalin-induced pain behavior; test: Formalin-induced pain behavior in vivo rodent model; parameters: species or system rat; conditions: vehicle 88.6
Source text: The data shown in Tables 3a, 3b, and 3c and FIG. 2 were obtained by administering a pharmaceutical composition comprising the compound of Formula (Ia) to rodents in the formalin-induced pain duration at various doses according to Example 5. Specifically, the data in Tables 3a, 3b, and 3c and FIG. 2 were obtained by intraperitoneal (i.p.) administration of compositions containing different concentrations of the compound of Formula (Ia), a comparator composition containing recited amounts of the comparator compound (e.g., 150 mg/kg of the comparator compound of Formula (II) in Table 3a) and a control composition containing the vehicle (e.g., without the compound of Formula (Ia) or a comparator compound).
The compound of Formula (Ia) and the comparator compounds of Formula (II) and Formula (III) were tested in the formalin-induced pain test reported by Dubuisson et al., Pain 1977 December; 4(2):161-74 (incorporated herein by reference in its entirety). Dubuisson et al. (1977) describe a method for assessing pain and analgesia in rats and cats. Briefly, dilute formalin (50 μL of 3% formalin) is injected into the plantar surface of the hind paw. […] The individual responsible for counting the pain behaviors in a particular study is blinded to the treatment groups.
Rats were treated with the HCl salt of Compound (Ia) at various doses (3, 10, 30, and 50 mg/kg, IP) or with the vehicle (IP).

hTRPA1 = hTRPA1 (Homo sapiens, UniProt O75762); test: hTrpA1 IC50 measured in 1% RSA (rat serum albumin); assay type: cell-based
Sequence of hTRPA1 (O75762 whole entry): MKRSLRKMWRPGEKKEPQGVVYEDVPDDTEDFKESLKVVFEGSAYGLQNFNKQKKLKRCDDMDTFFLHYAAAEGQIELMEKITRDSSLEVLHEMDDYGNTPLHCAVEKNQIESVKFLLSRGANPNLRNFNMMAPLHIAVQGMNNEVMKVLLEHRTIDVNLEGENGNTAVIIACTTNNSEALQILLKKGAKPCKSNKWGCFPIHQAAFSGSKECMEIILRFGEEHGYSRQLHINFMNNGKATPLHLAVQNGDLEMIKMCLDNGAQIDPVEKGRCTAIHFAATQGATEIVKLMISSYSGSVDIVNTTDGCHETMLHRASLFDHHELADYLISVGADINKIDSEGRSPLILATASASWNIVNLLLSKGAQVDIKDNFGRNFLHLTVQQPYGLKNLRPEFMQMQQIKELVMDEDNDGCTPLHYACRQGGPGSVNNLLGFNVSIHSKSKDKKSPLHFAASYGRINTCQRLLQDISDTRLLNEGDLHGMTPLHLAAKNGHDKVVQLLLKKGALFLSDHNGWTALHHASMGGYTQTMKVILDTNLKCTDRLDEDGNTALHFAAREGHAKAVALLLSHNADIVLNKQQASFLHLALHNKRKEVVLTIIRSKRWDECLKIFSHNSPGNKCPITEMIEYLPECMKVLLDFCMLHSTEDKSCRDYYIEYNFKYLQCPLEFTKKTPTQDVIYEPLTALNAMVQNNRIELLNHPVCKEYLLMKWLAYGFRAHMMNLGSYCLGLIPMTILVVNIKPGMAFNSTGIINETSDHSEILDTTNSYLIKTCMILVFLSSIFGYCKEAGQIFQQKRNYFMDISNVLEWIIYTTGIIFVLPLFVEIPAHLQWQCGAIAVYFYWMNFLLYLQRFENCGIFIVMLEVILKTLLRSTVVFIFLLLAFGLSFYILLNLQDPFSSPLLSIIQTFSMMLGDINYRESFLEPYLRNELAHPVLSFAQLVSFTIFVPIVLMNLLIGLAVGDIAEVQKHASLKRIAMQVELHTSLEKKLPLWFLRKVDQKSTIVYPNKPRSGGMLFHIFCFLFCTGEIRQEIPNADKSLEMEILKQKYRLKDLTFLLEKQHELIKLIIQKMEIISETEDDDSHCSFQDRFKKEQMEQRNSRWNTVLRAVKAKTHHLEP

`C[C@H]1CCCN1c1ncc(-c2cccc(NC(=O)Cn3cnc4c3c(=O)n(C)c(=O)n4C)n2)cn1` [Formula (Ia)] was tested, and the “airway hyper-responsiveness (PC400), relative to baseline” value ([1]; 5 mg/kg PO) was 100%, the “airway hyper-responsiveness (PC400), relative to baseline” value ([1]; 10 mg/kg PO) was 100% and the “time after surgery for which spontaneous pain is reduced” value ([2]; 30 mg/kg intraperitoneally (2 doses of 15 mg/kg before and immediately after the surgery)) was “up to 2 hours”. The “reduction of spontaneous pain compared with ketoprofen” value ([2]; 60 mg/kg i.p. versus ketoprofen 2 doses of 2 mg/kg intraperitoneally) was “equivalent to ketoprofen; also recorded: better than ketoprofen”, the “time after surgery for which spontaneous pain is reduced” value ([2]; 60 mg/kg intraperitoneally (2 doses of 30 mg/kg before and immediately after the surgery)) was “up to 4 hours” and the “Duration of Pain Behavior” value ([3]; 3 mg/kg i.p.) was 82.3 s. For the same compound, the “Duration of Pain Behavior” value ([3]; 10 mg/kg i.p.) was 85.8 s, the “Duration of Pain Behavior” value ([3]; 30 mg/kg i.p.) was 49.8 s and the “Duration of Pain Behavior” value ([3]; 50 mg/kg i.p.) was 5.9 s. It also gave an IC50 (hTRPA1) of 5.3 µM.
